In patent US20040248234A1, “Sensitive and selective in vitro assay for the detection of reactive drug intermediates” (Pfizer Inc, priority 2003, published 2004):
Like-named read-outs stand apart in the source and are kept apart here.

Legend:
[1] = literature reports; cited from earlier work
[2] = system: human liver microsomal (HL-mix-13)
[3] = system: human liver microsomal (HL-mix-13); settings: 10 μM substrate, 1 mM GSH, 0.5 μM P450, NADPH generating system, HPLC/SRM

Row | Compound | Response observed using GSH-EE as trapping agent [2] | other results
1 | CC(=O)Nc1ccc(O)cc1 [Acetaminophen] |  | formation of reactive species / reactive intermediates as reported [1]: have been reported to produce such species
2 | CCN(CC)Cc1cc(Nc2ccnc3cc(Cl)ccc23)ccc1O [Amodiaquine] | Yes | 
3 | NC(=O)N1c2ccccc2C=Cc2ccccc21 [Carbamazepine] | Yes | 
4 | O=C(O)Cc1ccccc1Nc1c(Cl)cccc1Cl [Diclofenac] | Yes | 
5 | COc1ccc2c(c1)c(CC(=O)O)c(C)n2C(=O)c1ccc(Cl)cc1 [Indomethacin] | No | 
6 | CN(CCOc1ccc(CC2SC(=O)NC2=O)cc1)c1ccccn1 (stereo not drawn) [Rosiglitazone] | Yes | 
7 | CC(=O)Oc1ccccc1C(=O)O [aspirin] |  | formation of reactive species / reactive intermediates as reported [1]: have not been reported to produce such reactive species
8 | Felbamate |  | Response observed using GSH-EE as trapping agent ([2]; 10 μM substrate, 1 mM GSH-EE, 0.5 μM P450, NADPH generating system, HPLC/SRM): Yes (A response in the assay was deemed “yes” if there were no co-eluting species contained in control (blank) samples and analyte peak to signal ratio was >10); Response observed using GSH as trapping agent [3]: No (A response in the assay was deemed “no” if the signal to noise ratio was <10)
